Where two headings read alike, the source gives them in different places.
Experiments:
CYP3A4 = conditions: read-out: IC50, CYP3A4-catalyzed midazolam hydroxylation, cited from earlier work
CYP2C9 = conditions: read-out: IC50, CYP2C9-catalyzed tolbutamide hydroxylation; cited from earlier work
CYP2D6 = conditions: read-out: IC50, CYP2D6-mediated dextromethorphan O-demethylation; cited from earlier work
OATP1B1 = OATP1B1 (Homo sapiens, UniProt Q9Y6L6); assay type: cell-based; set-up: expressed in transfected cells
Description: The assays were performed as described recently. Cells were seeded on 96-well plates one day prior to the measurement. After washing three times with PBS at room temperature, cells were incubated for 15 min with 8-acetoxy-1,3,6-trisulfopyrene (Ace, 5 µM). After this “preloading” stage, the supernatant was removed, and the cells were incubated with the same amount of the probe (Counterflow assay) or without the probe in buffer pH 5.5 (Efflux assay) in the absence and the presence of AOH for further 20 min. Fixed concentrations of AOH were selected based on the IC50 values determined in the transport inhibition assay. […]. Cells were washed three times with ice-cold PBS, then NaOH solution (0.1 N, 200 µL/well) was added. After 20 min, fluorescence was measured with an Enspire plate reader in Ex/Em wavelengths 460/510 nm. Bottom reading was applied with two horizontal (X) and two vertical (Y) points, measurement height was 3 mm with 200 flashes. Fluorescence was compared to the preloaded control incubated with Ace alone, considered as 100%.

OATP1B1, sequence (Q9Y6L6 whole entry): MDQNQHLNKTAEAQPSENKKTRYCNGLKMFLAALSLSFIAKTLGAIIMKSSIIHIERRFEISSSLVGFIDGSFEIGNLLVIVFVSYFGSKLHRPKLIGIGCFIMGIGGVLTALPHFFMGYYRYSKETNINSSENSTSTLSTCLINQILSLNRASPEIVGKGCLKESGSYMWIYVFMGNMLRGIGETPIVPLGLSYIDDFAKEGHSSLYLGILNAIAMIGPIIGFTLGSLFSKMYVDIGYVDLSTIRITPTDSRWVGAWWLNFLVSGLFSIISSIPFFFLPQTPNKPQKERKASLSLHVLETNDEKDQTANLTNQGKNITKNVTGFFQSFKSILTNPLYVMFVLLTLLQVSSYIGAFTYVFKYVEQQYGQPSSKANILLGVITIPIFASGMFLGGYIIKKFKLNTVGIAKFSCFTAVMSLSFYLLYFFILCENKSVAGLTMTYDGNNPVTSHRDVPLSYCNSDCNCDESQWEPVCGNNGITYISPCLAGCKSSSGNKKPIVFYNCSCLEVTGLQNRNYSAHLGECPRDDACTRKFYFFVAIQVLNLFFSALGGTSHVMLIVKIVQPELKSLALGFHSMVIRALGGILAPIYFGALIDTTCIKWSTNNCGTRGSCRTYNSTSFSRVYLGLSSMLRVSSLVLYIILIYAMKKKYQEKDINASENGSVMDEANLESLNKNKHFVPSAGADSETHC

CC(=O)OC[C@]12C[C@H](OC(=O)CC(C)C)C(C)=C[C@H]1O[C@@H]1[C@H](O)[C@@H](OC(C)=O)[C@@]2(C)[C@]12CO2 [T-2 toxin]
IC50 (CYP3A4): 27 µM

C[C@H]1CCCC(=O)CCC/C=C/c2cc(O)cc(O)c2C(=O)O1 [Zearalenone]
IC50 (CYP2C9): 0.54 µM
IC50 (CYP2D6): 55.4 µM
IC50 (CYP3A4; in vitro): 1.1 µM

C=O [formaldehyde]
fluorescence signal in the CCF (OATP1B1): no change in the fluorescence
effect on efflux of the probe (OATP1B1; pH 5.5): blocks the efflux
